Tests used:
[1] = system: gram positive bacteria; assay: MIC by broth microdilution (NCCLS), with or without 30% bovine serum (Table 42); assay type: cell-based
Procedure: (§1) Before dissolution, each sample was analyzed by HPLC and quantified.
(§2) The microorganisms used were reference strains obtained from the American Type Culture Collection (ATCC) (Rockville, Md.), SmithKline and French Laboratories (SKF), and the Upjohn Company (UC) (Kalamazoo, Mich.).
(§3) MICs were determined by the broth microdilution methodology following the standard NCCLS procedure (NCCLS Document M7-A6, Vol. 23, No. 2, “Methods for dilution antimicrobial susceptibility tests for bacteria that grow aerobically.” Approved Guideline. January 2003, which can be herein incorporated by reference in its entirety), with or without 30% adult bovine serum (BS) (PAA Laboratories GMBH, Haidmannweg Pasching Austria), using bacterial innocula at approximately 5×10^5 CFU/ml. The media employed included cation-adjusted Müller Hinton broth (Difco Laboratories, Detroit, Mich.) that was used that was adjusted with CaCl2 and MgCl2 to a final concentration of 20 mg/L and 10 mg/L, respectively. Tests were read following 20-24 hours of incubation at 35° C.

[2] = system: gram-negative bacteria; assay: MIC by broth microdilution (NCCLS) (Table 42); assay type: cell-based
Procedure: as §1, §2, §3

[3] = system: Candida albicans SKF 2270; assay: MIC by broth microdilution (NCCLS) (Tables 42, 44); assay type: cell-based
[4] = system: gram-negative bacteria; settings: E. coli ATCC25922 ref. strain; NCCLS M100 S-12; cited from earlier work
[5] = system: Escherichia coli, Proteus vulgaris, Pseudomonas aeruginosas; assay: MIC by broth microdilution (NCCLS) of IsoB0 and reference compounds (Table 44), non-gram-positive bacterial strains; assay type: cell-based
Procedure: (§4) MICs were determined by the broth microdilution methodology following the standard NCCLS procedure, with or without 30% bovine serum, using bacterial inocula of approximately 5×10^5 CFU/mL. Tests were read after 20-24 h incubation at 35° C.

[6] = system: panel of gram-positive bacteria; assay: MIC by broth microdilution (NCCLS) of IsoB0 and reference compounds (Table 44); assay type: cell-based
Procedure: Müller Hinton broth (Difco Laboratories, Detroit, Mich., USA) adjusted with CaCl2 and MgCl2 to a final concentrations of 20 mg/L and 10 mg/L respectively.
The microorganisms used are reference standard strains from the American Type Culture Collection (ATCC, Rockville, USA), Smith Kline and French Laboratories (SKF) and the Upjohn Company (UC, Kalamazoo, Mich., USA).
as §4

[7] = system: human α-glycoprotein; assay: Protein binding by isothermal titration microcalorimetry (Tables 27, 28); settings: for Calculated percent Binding: Human α-glycoprotein ([…]10^−5 M)
Procedure: (§5) Integrated heat effects, after correction for heats of dilution, were analyzed by non-linear regression using a simple single-site binding model with the standard Microcal ORIGIN software package. Raw data (μcal/sec) for each injection were integrated to give the total heat effect per addition, then divided by amount of injectant to give kcal/mole of injectant. The same integration was applied for control dilution effects, and this was subtracted from the actual titration data. This provided a differential of the binding curve in which the extent of binding is proportional to the total heat liberated (or absorbed). This was then analyzed by non-linear regression methods in terms of various standard binding models. The simplest model assumes simple non-competitive binding equilibrium, and gives three parameters:

[8] = ESI-MS of multimers in solution (concentration, pH, ionic strength); assay type: physicochemical
Procedure: Experiments were performed using an Applied Biosystem API III+ mass spectrometer equipped with a TurboIonSpray source, a Triple Quadrupole analyzer, operating in positive ion mode.
The mass spectra were obtained in electrospray positive mode on a Finnigan LCQ^Deca ion trap instrument previously tuned and calibrated in electrospray mode using Ultramark 1621, caffeine and MRFA (L-metionyl-arginyl-phenilalanyl-arginine).
The mass spectra were obtained in electrospray positive mode on a Finnigan LCQ^Deca ion trap instrument previous tuned and calibrated in electrospray mode using Ultramark 1621, caffeine and MRFA (L-metionyl-arginyl-phenilalanyl-arginine).

[9] = target: human albumin (Homo sapiens, UniProt P02768); assay: Protein binding by isothermal titration microcalorimetry (Tables 27, 28); settings: for Calculated percent Binding: Human albumin (6×10^−4 M)
Procedure: as §5

[10] = E. faecalis ATCC29212 ref. strain
[11] = Enterococcus faecalis ATCC 7080
[12] = S. aureus ATCC 29213 ref. strain
[13] = Staphylococcus aureus Smith ATCC 19636
[14] = Pseudomonas aeruginosas ATCC 10145

human albumin, sequence (P02768 25-609): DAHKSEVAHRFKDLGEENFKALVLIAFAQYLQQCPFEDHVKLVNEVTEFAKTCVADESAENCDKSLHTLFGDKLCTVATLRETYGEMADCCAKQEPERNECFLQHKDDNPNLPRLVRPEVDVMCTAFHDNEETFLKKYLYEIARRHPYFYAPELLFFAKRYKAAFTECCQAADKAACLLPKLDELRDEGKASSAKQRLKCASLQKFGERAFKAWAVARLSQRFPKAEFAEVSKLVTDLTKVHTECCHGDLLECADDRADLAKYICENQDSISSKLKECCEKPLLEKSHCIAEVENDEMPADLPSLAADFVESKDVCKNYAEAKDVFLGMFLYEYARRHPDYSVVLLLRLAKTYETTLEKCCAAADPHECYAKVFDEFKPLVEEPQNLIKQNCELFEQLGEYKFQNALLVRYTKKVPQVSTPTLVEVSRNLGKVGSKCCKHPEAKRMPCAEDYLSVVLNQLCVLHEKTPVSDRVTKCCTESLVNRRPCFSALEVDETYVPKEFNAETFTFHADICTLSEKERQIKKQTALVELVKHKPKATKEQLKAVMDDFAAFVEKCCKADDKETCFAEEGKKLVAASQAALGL

Question: With Gentamycin [reference compound] as the substance, how does the MIC ([1]; Bacillus subtilis ATCC 6633) read?
Answer: 0.25 µg/mL

Question: And the MIC [1, 10]?
Answer: 32 µg/mL

Question: And the MIC [1, 11]?
Answer: 8 µg/mL

Question: And the MIC [1, 12]?
Answer: 8 µg/mL

Question: And the MIC ([1]; S. aureus Smith + 30% BS)?
Answer: ≦0.125 mg/L

Question: And the MIC ([1]; S. epidermidis ATCC 12228)?
Answer: ≦0.125 mg/L

Question: And the MIC ([1]; S. pneumoniae Felton UC41)?
Answer: 8 µg/mL

Question: And the MIC [1, 13]?
Answer: 0.5 µg/mL

Question: And the MIC ([1]; Streptococcus pyrogenes SKF 13400)?
Answer: 4 µg/mL

Question: What about the MIC ([2]; E. coli ATCC25922 ref. strain) of the same substance?
Answer: 1 µg/mL

Question: And the MIC ([2]; Escherichia coli SKF 12140)?
Answer: 2 µg/mL

Question: What about the MIC ([2]; Proteus vulgaris ATCC 881) of the same substance?
Answer: 2 µg/mL

Question: What about the MIC [2, 14] of the same substance?
Answer: 1 µg/mL

Question: And the MIC ([3]; Candida albicans SKF 2270 (Table 42))?
Answer: >128 µg/mL

Question: What about the MIC ([3]; Candida albicans SKF2270 (Table 44)) of the same substance?
Answer: >128 µg/mL

Question: And the “Quality control range of MICs for reference strains” value [4]?
Answer: ^3GE 0.25-1 mg/L

Question: What about the MIC ([5]; E. coli ATCC25922 ref. strain) of the same substance?
Answer: 1 µg/mL

Question: And the MIC ([5]; Escherichia coli SKF 12140)?
Answer: 2 µg/mL

Question: And the MIC ([5]; Proteus vulgaris ATCC 881)?
Answer: 2 µg/mL

Question: What about the MIC [5, 14] of the same substance?
Answer: 1 µg/mL

Question: What about the MIC ([6]; Bacillus subtilis ATCC 6633) of the same substance?
Answer: 0.25 µg/mL

Question: What about the MIC [6, 10] of the same substance?
Answer: 32 µg/mL

Question: What about the MIC [6, 11] of the same substance?
Answer: 8 µg/mL

Question: And the MIC [6, 12]?
Answer: 8 µg/mL

Question: And the MIC ([6]; S. aureus Smith + 30% BS)?
Answer: ≦0.125 mg/L

Question: And the MIC ([6]; S. epidermidis ATCC 12228)?
Answer: ≦0.125 mg/L

Question: And the MIC ([6]; S. pneumoniae Felton UC41)?
Answer: 8 µg/mL

Question: And the MIC [6, 13]?
Answer: 0.5 µg/mL

Question: And the MIC ([6]; Streptococcus pyogenes SKF13400)?
Answer: 4 µg/mL

Question: With Teicoplanin as the substance, how does the “Calculated percent Binding” value ([7]; antibiotic 1 μM) read?
Answer: 9.6%

Question: What about the “Calculated percent Binding” value ([7]; antibiotic 10 μM) of the same substance?
Answer: 9.1%

Question: What about the “Calculated percent Binding” value ([7]; antibiotic 100 μM) of the same substance?
Answer: 6.0%

Question: What about the “apparent binding affinity (Ka)” value ([7]; α-glycoprotein, 25° C.) of the same substance?
Answer: 0.07 (±0.01) ×10^5 M^−1

Question: And the “multimers in solution (ESI-MS)” value [8]?
Answer: does not show multimeric complexes

Question: What about the “Calculated percent Binding” value ([9]; antibiotic 1 μM) of the same substance?
Answer: 98.3%

Question: And the “Calculated percent Binding” value ([9]; antibiotic 10 μM)?
Answer: 98.3%

Question: What about the “Calculated percent Binding” value ([9]; antibiotic 100 μM) of the same substance?
Answer: 98.0%

Question: What about the “apparent binding affinity (Ka)” value ([9]; Human albumin, 25° C., pH 7.4) of the same substance?
Answer: 0.96 (±0.08) ×10^5 M^−1

Source: patent US8143212B2 (Vicuron Pharmaceuticals Inc., priority 2002, dated 2012)
